According to patent US20220170028A1, “NOVEL INTERLEUKIN-2 VARIANTS AND BIFUNCTIONAL FUSION MOLECULES THEREOF” (Cugene Inc, priority 2019, published 2022):

Legend:
[1] = system: CD4+ Tconv cells, CD8 Teff and NK cells; assay: Dose-response pharmacodynamics, CD4+ Tconv, CD8 and NK cells in mice (Example 10); type: in vivo, mouse; settings: single s.c. dose, Balb/C mice
Protocol: Following a single subcutaneous administration of vehicle (PBS) or P-0511 (1, 0.3, 0.1, or 0.03 mg/kg) to female Balb/C mice (n=5/group), peripheral blood was collected on day −2 as baseline, and post dose on days 3, 5, and 7. On day 7, mice were sacrificed, and spleens were harvested. Blood lymphocyte phenotyping, proliferation and expansion were measured by flow cytometry at each timepoint using fresh whole blood.

Treg cells = assay: Treg pharmacodynamics in mice after repeated administration Q3D (Example 11); type: in vivo, mouse; settings: 0.3 mg/kg s.c.
Protocol: Female Balb/C mice (7-week old) were acclimated in house for 5-7 days before the study. Vehicle (PBS), 0.3 mg/kg of P-0511, P-0512, P-0531, or Benchmark-1 compound were subcutaneously administered to mice (n=5/group) on days 0, 3, and 6. On days 3 and 9, three days after the first injection and multiple (3) injections, respectively, peripheral blood was collected. Based on earlier in vivo experiments, Treg cell activation, proliferation, and expansion were expected to peak on day 3, and thus three days post injection was selected for data collection and analysis. Changes in blood lymphocyte activation, proliferation, and expansion were measured by flow cytometry. P-0531 is the S125I equivalent of the wild type IL-2 fusion protein. The Benchmark-1 contains V91K mutation.

[2] = system: STAT5 phosphorylation in CD4+ Tconv cells; assay: STAT5 phosphorylation in CD4+ Tconv cells, human PBMC assay by FACS; type: cell-based
Method in brief: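 Donor PBMCs were starved in serum-free buffer at 4° C for 1 h, then 2×10^5 cells were exposed to serial dilutions of IL-2 variants for 30 min at 37° C. After fixation and permeabilization they were stained for CD4, CD25, FOXP3 and pSTAT5. Read-out is percent pSTAT5+ cells among CD4+/Foxp3+/CD25^high (Treg) or CD4+/Foxp3−/CD25^low (Tconv) cells by flow cytometry.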

[3] = system: KLH-induced DTH in Balb/C mice; assay: KLH-induced delayed-type hypersensitivity (DTH) mouse model, ear thickness; type: in vivo; settings: for inhibition of ear inflammation (separate study): Q5D
Protocol: The ability of Treg cells induced by IL-2 variants to suppress T cell antigen-driven inflammation in vivo was assessed in a model of delayed-type hypersensitivity (DTH). Female Balb/C mice (7-week old) were acclimated in house for 7 days and randomized into groups. Subcutaneous administration of vehicle (PBS), P-0511 at either 0.1 mg/kg or 0.3 mg/kg was initiated on day −2 and was given either once every 3 days (Q3D) for three injections or once every 5 days (Q5D) for two injections. Mice were then sensitized with a subcutaneous administration of 100 μg keyhole limpet hemocyanin (KLH) in 200 μl saline on day 0. For Q3D dosing, two more subcutaneous injections of PBS or P-0511 (0.1 or 0.3 mg/kg) were administered on days 1, and 4; for Q5D dosing, one additional s.c. injection of PBS, 0.1 or 0.3 mg/kg P-0511 was administered on day 3. Mice received an intradermal challenge of KLH (5 μg in 10 μl saline) in right ear on day 5. Right ear thickness was measured using a caliper on day 5 prior KLH challenge and daily from day 6 to day 9 corresponding to 24 h, 48 h, 72 h and 96 h post KLH challenge. One group of mice also received 5 mg/kg daily i.p. treatment of dexamethasone from day 5 to day 8 as a positive control.
Kinetics of the DTH response using the change in ear thickness relative to baseline values (Δ ear thickness) at various times after KLH challenge was illustrated in FIG. 23.

NK cells = assay: NK cell proliferation, CFSE dilution, human PBMC; type: cell-based; settings: 5 or 7 days incubation
Protocol: Further, P-0511 and P-0512 were tested for their ability to stimulate NK and CD8+ T cells proliferation in comparison with the wild type and benchmark molecules. Intracellular fluorescent label carboxyfluorescein diacetate succinimidyl ester (CFSE) method was utilized. Briefly, human PBMC (1×10^5 cells/well) were labeled with CFSE, plated onto 96-well plates, and incubated with increasing concentrations of different IL-2 compounds. Cells were then harvested after 5 or 7 days of incubation and stained with either anti-CD56-APC antibody for NK cells or anti-CD8-APC antibody for CD8+ T cells; and analyzed by flow cytometry. Data are expressed as a percent of divided cells and illustrated in FIG. 10A for CD8+ T cell proliferation and FIG. 10B for NK cell proliferation.

[4] = system: CD4+ Treg vs CD4+ Tconv cells; assay: STAT5 phosphorylation, selectivity / activity profile Treg versus CD4+ Tconv cells, human PBMC; type: cell-based
Method in brief: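 Fresh human PBMC from a healthy donor, serum-starved 1 h at 4 °C, then exposed to serial dilutions of IL-2 variants for 30 min at 37 °C. After fixation/permeabilization, cells stained for CD4, CD25, FOXP3 and pSTAT5 and analysed by flow cytometry. Treg (CD4+/Foxp3+/CD25high) and Tconv (CD4+/Foxp3−/CD25low) gated; read-out is percent pSTAT5-positive cells.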

## P-0511: IL-2 L19H/S125I/Q126E Fc fusion, SEQ ID NO: 213
[1]
  percentages of CD4+ Tconv, CD8 Teff and NK cells over the total lymphocytes: no statistically significant changes
Treg cells; after three consecutive Q3D treatments
  % Treg over total CD4 T cells or over total lymphocytes: sustained at significantly high levels
Treg cells; repeated dosing Q3D
  Treg cell counts, fold changes relative to PBS and Treg/Tconv ratio: superior capabilities to sustain Treg pool and maintain Treg selectivity
[2]
  STAT5 phosphorylation activity in CD4+ Tconv cells (in words): nearly completely abolished
[3]; 0.1 mg/kg s.c., Q3D and Q5D
  suppression of DTH ear swelling: did not reach statistical significance at most of the time points
[3]; 0.1 mg/kg
  inhibition of ear inflammation (separate study): mild
[3]; 0.3 mg/kg
  inhibition of ear inflammation (separate study): Intermediate
[3]; 1 mg/kg
  inhibition of ear inflammation (separate study): strong resistance to KLH-induced DTH
NK cells
  potency in stimulating NK cell proliferation (in words): on par with Benchmark-3
[4]
  activity profile / selectivity window Treg over CD4+ Tconv (in words): further widened the Treg selectivity window
[4]; Isoleucine-125 constructs
  Treg Selectivity: Yes
